Test results as given in ChEMBL document CHEMBL1149238, “A novel mixed-ligand antimycobacterial dimeric copper complex of ciprofloxacin and phenanthroline” (2004).

Tested on: Mycolicibacterium smegmatis
Test: Antimycobacterial activity was determined against Mycobacterium smegmatis
Format: functional

Question: How did the Log of inhibitory zone turn out when `O=C(O)c1cn(C2CC2)c2cc(N3CCNCC3)c(F)cc2c1=O` [CIPROFLOXACIN] was run?
Answer: 1.28 log mm
